The values below come from US8716281B2, “Pyrimidine compounds that inhibit anaplastic lymphoma kinase” (Amgen Inc., priority 2010, dated 2014).

T1 sequence (Q9UM73 1058-1620): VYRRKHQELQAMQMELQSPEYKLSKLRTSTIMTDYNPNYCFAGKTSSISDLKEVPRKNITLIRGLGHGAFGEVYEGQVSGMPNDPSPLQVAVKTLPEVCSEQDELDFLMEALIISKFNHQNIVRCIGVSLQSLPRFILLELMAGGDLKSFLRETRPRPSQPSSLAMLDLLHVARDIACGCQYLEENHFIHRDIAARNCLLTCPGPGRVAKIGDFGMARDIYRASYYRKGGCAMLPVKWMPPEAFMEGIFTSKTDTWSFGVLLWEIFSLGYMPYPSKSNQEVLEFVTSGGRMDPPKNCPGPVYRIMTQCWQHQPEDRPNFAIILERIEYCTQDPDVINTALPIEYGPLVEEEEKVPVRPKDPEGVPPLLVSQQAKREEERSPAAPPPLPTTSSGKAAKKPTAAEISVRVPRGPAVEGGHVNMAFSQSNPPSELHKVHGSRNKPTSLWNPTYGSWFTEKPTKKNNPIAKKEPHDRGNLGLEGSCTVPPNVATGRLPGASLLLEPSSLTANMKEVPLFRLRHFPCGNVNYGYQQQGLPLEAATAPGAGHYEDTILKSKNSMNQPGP

One experiment has as its target T1, wild-type human ALK cytoplasmic domain (amino acids 1058-1620) (Homo sapiens, UniProt Q9UM73).
T1 construct: The cytoplasmic domain (amino acids 1058-1620) of wild-type human ALK; GST (N); made in house; host or cells: SF9 insect cells
The experiment can be described thus: ALK Inhibition in Enzyme Assay (Lance TR-FRET).
Settings: not given
It is filed as biochemical. In a few lines:
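TR-FRET read-out (Eu-W1024 PT66 anti-phosphotyrosine plus streptavidin-allophycocyanin, 320 nm excitation) quantified biotinylated peptide phosphorylation by the purified kinase. Reaction ran 90 minutes at room temperature before quenching with 20 mM EDTA in Tris pH 7.5 buffer with NaCl, BSA and Tween-20.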
(In general: In TR-FRET formats the signal depends on donor and acceptor labels being close together.)
Broadly, the IC50 is the concentration at which inhibition is half-maximal. `COc1cc(Nc2nccc(N3CCC[C@H](C(=O)NCCCc4ccccc4)C3)n2)cc(OC)c1OC` [Example 126, (S)-N-(3-phenylpropyl)-1-(2-((3,4,5-trimethoxyphenyl)amino)-4-pyrimidinyl)-3-piperidinecarboxamide] registered an IC50 of 5 to 10 µM.

Still in this experiment, the particulars now being: 2 nM enzyme, ATP at 40 μM (Km apparent), 90 minutes, mean of three replicates; read-out: ALK IC50.
Regarding `COc1cc(Nc2nccc(N3CCC[C@H](C(=O)NCc4cccc(Br)c4)C3)n2)cc(OC)c1OC` [Example 113, (S)-N-(3-bromobenzyl)-1-(2-((3,4,5-trimethoxyphenyl)amino)-4-pyrimidinyl)-3-piperidinecarboxamide], the IC50 is less than 0.05 µM.
On the same count and under the same terms, under `COc1cc(Nc2nccc(N3CCC[C@H](C(=O)NCc4cccc(Oc5ccc(C)cc5)c4)C3)n2)cc(OC)c1OC` [Example 114, (S)-N-(3-(4-methylphenoxy)benzyl)-1-(2-((3,4,5-trimethoxyphenyl)amino)-4-pyrimidinyl)-3-piperidinecarboxamide] stands 1 to 5 µM; under `COc1cc(Nc2nccc(N3CCC[C@H](C(=O)NCc4ccc(C#N)cc4)C3)n2)cc(OC)c1OC` [Example 115, (S)-N-(4-cyanobenzyl)-1-(2-((3,4,5-trimethoxyphenyl)amino)-4-pyrimidinyl)-3-piperidinecarboxamide], 0.1 to 1 µM.
Still for that read-out and setting: the same measure for `COc1cc(Nc2nccc(N3CCC[C@H](C(=O)NCc4ccc(Oc5ccccc5)cc4)C3)n2)cc(OC)c1OC` [Example 116, (S)-N-(4-phenoxybenzyl)-1-(2-((3,4,5-trimethoxyphenyl)amino)-4-pyrimidinyl)-3-piperidinecarboxamide]: 0.05 to 0.1 µM.
On to `COc1cc(Nc2nccc(N3CCC[C@H](C(=O)NCc4ccc(C(C)C)cc4)C3)n2)cc(OC)c1OC` [Example 117, (S)-N-(4-(1-methylethyl)benzyl)-1-(2-((3,4,5-trimethoxyphenyl)amino)-4-pyrimidinyl)-3-piperidinecarboxamide], for which the IC50 was less than 0.05 µM.
As for `COc1cc(Nc2nccc(N3CCC[C@H](C(=O)NCc4ccc(Oc5ccc(Cl)cc5)cc4)C3)n2)cc(OC)c1OC` [Example 118, (S)-N-(4-(4-chlorophenoxy)benzyl)-1-(2-((3,4,5-trimethoxyphenyl)amino)-4-pyrimidinyl)-3-piperidinecarboxamide], the IC50 was in the range of 0.1 to 1 µM.
With `COc1cc(Nc2nccc(N3CCC[C@H](C(=O)NCc4ccc(Oc5ccc(C)cc5)cc4)C3)n2)cc(OC)c1OC` [Example 119, (S)-N-(4-(4-methylphenoxy)benzyl)-1-(2-((3,4,5-trimethoxyphenyl)amino)-4-pyrimidinyl)-3-piperidinecarboxamide], the IC50 was in the range of 0.1 to 1 µM.
For the molecule `COc1cc(Nc2nccc(N3CCC[C@H](C(=O)NCc4ccc(-c5cc(Cl)cc(Cl)c5)cc4)C3)n2)cc(OC)c1OC` [Example 120, (S)-N-((3′,5′-dichloro-4-biphenylyl)methyl)-1-(2-((3,4,5-trimethoxyphenyl)amino)-4-pyrimidinyl)-3-piperidinecarboxamide], the IC50 was in the range of 1 to 5 µM.
The same measure, in the same setting: under `COc1cc(Nc2nccc(N3CCC[C@H](C(=O)NCc4ccc(-c5ccccc5Cl)cc4)C3)n2)cc(OC)c1OC` [Example 121, (S)-N-((2′-chloro-4-biphenylyl)methyl)-1-(2-((3,4,5-trimethoxyphenyl)amino)-4-pyrimidinyl)-3-piperidinecarboxamide] stands 0.1 to 1 µM.
Turning to `COc1cc(Nc2nccc(N3CCC[C@H](C(=O)NCc4ccc(S(C)(=O)=O)cc4)C3)n2)cc(OC)c1OC` [Example 122, (S)-N-(4-(methylsulfonyl)benzyl)-1-(2-((3,4,5-trimethoxyphenyl)amino)-4-pyrimidinyl)-3-piperidinecarboxamide], the IC50 is 1 to 5 µM.
The same measure, in the same setting: the same measure for `COc1cc(Nc2nccc(N3CCC[C@H](C(=O)NCc4ccc(-c5ccc(F)cc5)cc4)C3)n2)cc(OC)c1OC` [Example 123, (S)-N-((4′-fluoro-4-biphenylyl)methyl)-1-(2-((3,4,5-trimethoxyphenyl)amino)-4-pyrimidinyl)-3-piperidinecarboxamide]: 0.1 to 1 µM; for `COc1cc(Nc2nccc(N3CCC[C@H](C(=O)NCc4ccc(NC(C)=O)cc4)C3)n2)cc(OC)c1OC` [Example 124, (S)-N-(4-(acetylamino)benzyl)-1-(2-((3,4,5-trimethoxyphenyl)amino)-4-pyrimidinyl)-3-piperidinecarboxamide]: 1 to 5 µM; for `COc1cc(Nc2nccc(N3CCC[C@H](C(=O)NC(C#N)c4ccc(OC(F)(F)F)cc4)C3)n2)cc(OC)c1OC` (stereo partly drawn) [Example 127, (S)-N-(cyano(4-(trifluoromethoxy)phenyl)methyl)-1-(2-(3,4,5-trimethoxyphenylamino)pyrimidin-4-yl)piperidine-3-carboxamide]: less than 0.05 µM.
In the case of `Cc1ccc(CNC(=O)[C@H]2CCCN(c3ccnc(Nc4cnc5ccccc5c4)n3)C2)cc1` [Example 130, (3S)-N-(4-methylbenzyl)-1-(2-(3-quinolinylamino)-4-pyrimidinyl)-3-piperidinecarboxamide], the IC50 lay within 1 to 5 µM.
On the same count and under the same terms, under `Cc1ccc(CNC(=O)[C@H]2CCCN(c3ccnc(Nc4ccc5[nH]ccc5c4)n3)C2)cc1` [Example 131, (3S)-1-(2-(1H-indol-5-ylamino)-4-pyrimidinyl)-N-(4-methylbenzyl)-3-piperidinecarboxamide] stands 1 to 5 µM; under `COc1ccccc1Nc1nccc(N2CCC[C@H](C(=O)NCc3ccc(C)cc3)C2)n1` [Example 133, (3S)-1-(2-((2-methoxyphenyl)amino)-4-pyrimidinyl)-N-(4-methylbenzyl)-3-piperidinecarboxamide], 1 to 5 µM.
For `Cc1ccc(CNC(=O)[C@H]2CCCN(c3ccnc(Nc4cccc(C(F)(F)F)c4)n3)C2)cc1` [Example 137, (3S)-N-(4-methylbenzyl)-1-(2-((3-(trifluoromethyl)phenyl)amino)-4-pyrimidinyl)-3-piperidinecarboxamide], the IC50 is 1 to 5 µM.
As to `COc1ccc(NC(C)=O)cc1Nc1nccc(N2CCC[C@H](C(=O)NCc3ccc(C)cc3)C2)n1` [Example 138, (3S)-1-(2-((5-(acetylamino)-2-methoxyphenyl)amino)-4-pyrimidinyl)-N-(4-methylbenzyl)-3-piperidinecarboxamide], the half-maximal inhibitory concentration (IC50) was in the range of 1 to 5 µM.
As to `Cc1ccc(CNC(=O)[C@H]2CCCN(c3ccnc(Nc4ccc(N5CCOCC5)cc4)n3)C2)cc1` [Example 139, (3S)-N-(4-methylbenzyl)-1-(2-((4-(4-morpholinyl)phenyl)ami-no)-4-pyrimidinyl)-3-piperidinecarboxamide], the IC50 fell in the range of 1 to 5 µM.
For `Cc1ccc(CNC(=O)[C@H]2CCCN(c3ccnc(Nc4cccc5c4CNC5=O)n3)C2)cc1` [Example 141, (3S)-N-(4-methylbenzyl)-1-(2-((1-oxo-2,3-dihydro-1H-isoindol-4-yl)amino)-4-pyrimidinyl)-3-piperidinecarboxamide], the IC50 fell in the range of 0.1 to 1 µM.
In the case of `CC(=O)N1CC(C)(C)c2ccc(Nc3nccc(N4CCC[C@H](C(=O)NCc5ccc(C)cc5)C4)n3)cc21` [Example 142, (3S)-1-(2-((1-acetyl-3,3-dimethyl-2,3-dihydro-1H-indol-6-yl)amino)-4-pyrimidinyl)-N-(4-methylbenzyl)-3-piperidinecarboxamide], the IC50 fell in the range of 1 to 5 µM.
The same measure, in the same setting: the same measure for `Cc1ccc(CNC(=O)[C@H]2CCCN(c3ccnc(Nc4cccc(Cn5nccn5)c4)n3)C2)cc1` [Example 143, (3S)-N-(4-methylbenzyl)-1-(2-((3-(2H-1,2,3-triazol-2-ylmethyl)phenyl)amino)-4-pyrimidinyl)-3-piperidinecarboxamide]: 0.1 to 1 µM.
